In US10913752B2, “Bivalent bromodomain inhibitors and uses thereof” (Dana-Farber Cancer Institute, Inc., priority 2015, dated 2021):
“Also recorded” adds a separate entry of the source.

Experiments:
[1] = system: NMC797 and MV4; 11 cells; test: Cellular assays, cell lines not told apart (NMC797 and MV4;11); format: cell-based, human
Text: Analysis of Cell Viability by ATPLite

[2] = biological target: T1, BRD4(1) (Homo sapiens, UniProt O60885); test: BRD4(1) AlphaScreen (competition with biotinylated-JQ1); format: binding; parameters: human BRD4 covering residues 44-168 (His-BRD4(1)) or 333-460 (His-BRD4(2)); made in house; host or cells: E. coli BL21 (DE3); settings: for biochemical activity (in words): biochemical assay, compared with JQ1
Protocol: BRD4(1) and BRDT(1) AlphaScreen™
Assays were performed with minimal modifications from the manufacturer's protocol (PerkinElmer, USA). All reagents were diluted in AlphaScreen™ buffer (50 mM HEPES, 150 mM NaCl, 0.1% w/v BSA, 0.01% w/v Tween20, pH 7.5) and allowed to equilibrate to room temperature prior to addition to plates. After addition of Alpha beads to master solutions all subsequent steps were performed under low light conditions. […] Plates were spun down at 150×g, 100 nL of compound in DMSO from stock plates were added by pin transfer using a Janus Workstation (PerkinElmer). The streptavidin-coated donor beads (10 μg/ml final) were added as with previous in a 2×, 10 μL volume. Following this addition, plates were sealed with foil to prevent light exposure and evaporation. The plates were spun down again at 150×g.

[3] = Mouse pharmacokinetics (cassette and single PK); format: in vivo, CD1 mice; settings: mice
Protocol: FIGS. 9a-9b. Cassette PK properties of bivalent inhibitors. FIGS. 9a and 9b show PK parameters of mice 5-in-1 cassette PK. Five compounds (1 mg/kg) were intravenously administered to CD1 mice (n=3).
FIGS. 10a-10b. Individual PK properties of bivalent inhibitors. […] (6S+2S)-PEG0 (50 mg/kg) was intraperitoneally administered to CD1 mice (n=3). […] (6S+6S)-PEG7 (50 mg/kg) was intraperitoneally administered to CD1 mice (n=3).

[4] = biological target: T2, CBP (Homo sapiens, UniProt Q92793); test: BROMOscan, CBP; format: binding
T2 construct: purchased DiscoveRx (BROMOscan)
Text: (§1) To further profile bivalent inhibitors, fluorescent polarization (FP) and phage-based, multiplexed bromodomain displacement assays (BROMOscan™, DiscoveRx) were utilized.

[5] = biological target: T3, EP300 (Homo sapiens, UniProt Q09472); test: BROMOscan, EP300; format: binding
T3 construct: purchased DiscoveRx (BROMOscan)
Text: as §1

[6] = biological target: T4, WDR9(2) (Homo sapiens, UniProt Q9NSI6); test: BROMOscan, WDR9(2); format: binding
T4 construct: purchased DiscoveRx (BROMOscan)
Text: as §1

[7] = system: MYC; test: Immunoblot for MYC in MV4;11 cells; format: cell-based, human
Protocol: (§2) Cells were lysed with RIPA buffer supplemented with protease inhibitor cocktail (Roche) and 0.1% benzonase (Novagen) on ice for 20 minutes. The lysates were spun at 20,000×g for 15 minutes at 4° C. and protein concentration was determined by a BCA assay (Pierce). The following antibodies were used in this study: BRD4 (Bethyl labs), c-MYC and actin (both Santa Cruz), HEXIM1, PARP, cleaved caspase 3 (all Cell Signaling Technology). Blots were imaged using fluorescence-labeled secondary antibodies (LI-COR) on the OdysseyCLxImager (LI-COR).

[8] = system: HEXIM1; test: Immunoblot for HEXIM1 in MV4;11 cells; format: cell-based, human
Protocol: as §2

[9] = biological target: T5, BRD4 (Homo sapiens, UniProt O60885); test: Immunoblot for BRD4 protein stability (degradation); format: cell-based; settings: immunoblots following compound treatment
T5 construct: endogenous in cells; host or cells: MV4;11
Protocol: as §2

[10] = biological target: BRD4(2) (Homo sapiens, UniProt O60885); test: BROMOscan, BRD4(2)
[11] = biological target: BRD4(full) (Homo sapiens, UniProt O60885); test: BROMOscan, full length protein
[12] = biological target: BRD4(1,2) (Homo sapiens, UniProt O60885); test: BROMOscan, tandem bromodomain construct
[13] = biological target: T1, BRD4(1); test: BROMOscan phage-based bromodomain displacement, BRD4(1)
[14] = system: NMC797 cells (BRD4-rearranged NUT midline carcinoma); test: cells; settings: Homo sapiens, NMC-797, 72 h, read-out: IC50, proliferation
Protocol: Cells were cultured at 37° C. with 5% CO2 in either DMEM (NMC797) or RPMI1640 (MV4; 11) supplemented with 10% FBS (Sigma), 100 U/mL penicillin, 100 μg/mL streptomycin, and 2 mM glutamine (Gibco). Cells tested negative for mycoplasma using the MycoAlert™ kit (Lonza).
Cells were plated at 1000 cells/well in 50 μL/well of media in 384 well white culture plates (Thermo). NMC797 cells were allowed to adhere overnight before adding 100 μL of compound in DMSO from compound stock plates using a Janus Workstation pin tool (PerkinElmer, USA). […] Cell viability was read out using the ATPlite kit (PerkinElmer). Plates were brought to room temperature prior to reagent addition. Lyophilized powder was resuspended in lysis buffer and diluted 1:2 with DI water.

[15] = biological target: T6, neurokinin NK2 receptor (Homo sapiens, UniProt P21452); test: Receptor profiling, [Nleu-10]-NKA radioligand binding; settings: 1 μM
T6 construct: purchased CEREP (Eurofins, Paris, France), ExpresSProfile
Text: Receptor Profiling Studies

[16] = system: wild-type BRD4(1,2); test: Size-exclusion chromatography, wild-type tandem construct; settings: half an equivalence of MT1
[17] = system: BRD4(1,2^MUT) (N433A); test: Size-exclusion chromatography, second bromodomain mutant; settings: half an equivalence of MT1
[18] = system: BRD4(1^MUT,2) (N140A); test: Size-exclusion chromatography, first bromodomain mutant; settings: half an equivalence of MT1
[19] = system: BRD2, 3 and 4; test: Cellular thermal shift assay (CETSA); format: cell-based, human; settings: MV411 cells
Protocol: Cellular Thermal Shift Assay (CETSA)
Compound or DMSO was incubated with 4×10^6 MV411 cells for 1 hr at 37° C. Cells were put on ice and washed with PBS and transferred to PCR tubes. Supernatant was aspirated to leave ˜5 μl in each tube and then cells were heat shocked in a thermocycler at 48.5° C. for 3 min to denature proteins. Cells were then allowed to cool at RT for 3 min and then resuspended in 35 μl lysis buffer (50 mM Tris-HCl pH 7.5, 5% glycerol, 100 mM NaCl, 1.5 mM MgCl, 0.2% NP-40+protease inhibitor cocktail (Halt)) and freeze-thawed 3 times with liquid nitrogen to lyse cells. Lysates were then spun at 20,000×g for 20 min to clarify and pellet aggregated protein. Supernatant was boiled with LDS and split into three samples for immunoblotting. Bands were quantified using Image Studio™ software and plotted using GraphPad PRISM v6 as triplicate means±SEM.

[20] = system: MV4; 11 cells; test: Immunoblot for caspase-3 and PARP cleavage in MV4;11 cells; format: cell-based, human; settings: 100 nM
Protocol: as §2

[21] = system: MV4; 11 human leukemia cells (mCherry+, Luciferase+); test: Disseminated leukemia xenograft, second (survival) study; format: in vivo, mice (NSG); settings: 44.2 μmol/kg
Text: A drug holiday was given for 2 days (day 29-30), Treatment resumed for 5 more days (31-35) and then ended. Mice were monitored and sacrificed when hind-limb paralysis was evident or body weight dropped by 15%.

[22] = system: 55 ligand receptors, ion channels, and transport proteins; test: Receptor profiling (ExpresSProfile, CEREP); settings: 1 μM, more than 50 tested
[23] = system: MV4; 11 human leukemia cells (mCherry+, Luciferase+); test: Disseminated leukemia xenograft, first study; parameters: mCherry+ leukemic burden in bone marrow by FACS: dose or concentration left out as unconfirmed

T2 sequence (Q92793 1085-1192 limits assumed): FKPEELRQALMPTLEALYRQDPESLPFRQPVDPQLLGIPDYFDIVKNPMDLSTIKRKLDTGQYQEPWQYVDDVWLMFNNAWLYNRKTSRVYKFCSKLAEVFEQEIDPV
T6 sequence (P21452 whole entry): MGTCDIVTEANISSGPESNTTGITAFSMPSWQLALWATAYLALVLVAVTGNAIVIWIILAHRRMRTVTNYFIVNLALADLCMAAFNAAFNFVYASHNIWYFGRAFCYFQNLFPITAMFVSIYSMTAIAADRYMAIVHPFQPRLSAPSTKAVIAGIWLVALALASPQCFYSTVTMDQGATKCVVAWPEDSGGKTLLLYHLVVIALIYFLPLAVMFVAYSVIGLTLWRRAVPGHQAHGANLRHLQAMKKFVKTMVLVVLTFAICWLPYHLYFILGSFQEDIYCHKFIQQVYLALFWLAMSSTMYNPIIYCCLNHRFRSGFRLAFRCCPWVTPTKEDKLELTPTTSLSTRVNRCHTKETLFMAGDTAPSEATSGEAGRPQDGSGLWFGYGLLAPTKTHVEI
T4 sequence (Q9NSI6 1313-1418 limits assumed): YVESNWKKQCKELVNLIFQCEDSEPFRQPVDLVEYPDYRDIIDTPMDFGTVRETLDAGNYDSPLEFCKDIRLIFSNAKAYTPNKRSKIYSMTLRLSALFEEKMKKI
T3 sequence (Q09472 1049-1156 limits assumed): as the sequence (Q92793 1085-1192 limits assumed) above, with N47S, V73I, F93Y, A98S counted along it

Compound: COC(=O)C[C@@H]1N=C(c2ccc(Cl)cc2)c2c(sc(C(=O)NCCOCCNC(=O)c3sc4c(c3C)C(c3ccc(Cl)cc3)=N[C@@H](CC(=O)OC)c3nnc(C)n3-4)c2C)-n2c(C)nnc21 [(2+2)-PEG1, Dimethyl 2,2′-((6S,6′S)-(((oxybis(ethane-2,1-diyl))bis(azanediyl))bis(carbonyl))bis(4-(4-chlorophenyl)-3,9-dimethyl-6H-thieno[3,2-f][1,2,4]triazolo[4,3-a][1,4]diazepine-2,6-diyl))diacetate]
- cellular activity (in words) ([1]; 11, compared with JQ1): not properly reflected in cellular activity
- cellular activity (in words) ([1]; 11, compared with JQ1, listed as (2+2) homodimer): did not translate into cellular activity
- IC50 ([2]; AlphaScreen, BRD4(1)): 1.17 nM
- fold increase in biochemical potency / inhibitory activity ([2]; BRD4(1), relative to monomeric inhibitor): 20 fold

Compound: COC(=O)C[C@@H]1N=C(c2ccc(Cl)cc2)c2c(sc(C(=O)NCCNC(=O)C[C@@H]3N=C(c4ccc(Cl)cc4)c4c(sc(C)c4C)-n4c(C)nnc43)c2C)-n2c(C)nnc21 [(6+6)-PEG1, Methyl 2-((S)-4-(4-chlorophenyl)-2-((2-(2-((S)-4-(4-chlorophenyl)-2,3,9-trimethyl-6H-thieno[3,2-f][1,2,4]triazolo[4,3-a][1,4]diazepin-6-yl)acetamido)ethyl)carbamoyl)-3,9-dimethyl-6H-thieno[3,2-f][1,2,4]triazolo[4,3-a][1,4]diazepin-6-yl)acetate]
- cellular activity (in words) ([1]; 11, compared with JQ1): did not show improved activity
- cellular activity (in words) ([1]; 11, compared with JQ1, listed as (6+6) homodimer): did not increase biochemical or cellular activity
- biochemical activity (in words) [2]: did not show improved activity
- biochemical activity (in words) ([2]; listed as (6+6) homodimer): did not increase biochemical or cellular activity

Compound: COC(=O)C[C@@H]1N=C(c2ccc(Cl)cc2)c2c(sc(C(=O)NCCNC(=O)C[C@@H]3N=C(c4ccc(Cl)cc4)c4c(sc(C)c4C)-n4c(C)nnc43)c2C)-n2c(C)nnc21 [(6S+2S)-PEG0, Methyl 2-((S)-4-(4-chlorophenyl)-2-((2-(2-((S)-4-(4-chlorophenyl)-2,3,9-trimethyl-6H-thieno[3,2-f][1,2,4]triazolo[4,3-a][1,4]diazepin-6-yl)acetamido)ethyl)carbamoyl)-3,9-dimethyl-6H-thieno[3,2-f][1,2,4]triazolo[4,3-a][1,4]diazepin-6-yl)acetate]
- PK properties (in words) [3]: comparable PK properties to MT1

Compound: COC(=O)C[C@@H]1N=C(c2ccc(Cl)cc2)c2c(sc(C(=O)NCCOCCNC(=O)C[C@@H]3N=C(c4ccc(Cl)cc4)c4c(sc(C)c4C)-n4c(C)nnc43)c2C)-n2c(C)nnc21 [(6S+2S)-PEG1, Methyl 2-((S)-4-(4-chlorophenyl)-2-((2-(2-(2-((S)-4-(4-chlorophenyl)-2,3,9-trimethyl-6H-thieno[3,2-f][1,2,4]triazolo[4,3-a][1,4]diazepin-6-yl)acetamido)ethoxy)ethyl)carbamoyl)-3,9-dimethyl-6H-thieno[3,2-f][1,2,4]triazolo[4,3-a][1,4]diazepin-6-yl)acetate]
- cellular activity (in words) ([1]; 11, compared with JQ1): single-digit to sub-nanomolar activity
- Kd [4]: 2500 nM
- Kd [5]: 5000 nM
- Kd [6]: 9900 nM
- time of maximum effect on MYC ([7]; 10 nM): 2 h
- lowest concentration with MYC downregulation ([7]; within two hours): 10 nM
- time points of HEXIM1 upregulation [8]: 4 to 24 h
- effect on BRD4 protein stability [9]: No effect on protein stability
- displacement of phage (in words) [10]: picomolar displacement
- displacement of phage (in words) [11]: picomolar displacement
- displacement of phage (in words) [12]: picomolar displacement
- displacement of phage (in words) [13]: picomolar displacement
- biochemical activity (in words) [2]: single-digit to sub-nanomolar activity

Compound: COc1cc2c(cc1-c1c(C)noc1C)ncc1[nH]c(=O)n([C@H](C)c3ccccn3)c12 [I-BET151, reference compound]
- cellular activity (in words) ([1]; 11, compared with JQ1): comparable performance to JQ1
- biochemical activity (in words) [2]: comparable performance to JQ1

Compound: Cc1sc2c(c1C)C(c1ccc(Cl)cc1)=N[C@@H](CC(=O)OC(C)(C)C)c1nnc(C)n1-2 [JQ1, reference compound]
- IC50 [14]: 69 nM

Compound: Methyl 2-((S)-4-(4-chlorophenyl)-2-((2-(2-((S)-4-(4-chlorophenyl)-2,3,9-trimethyl-6H-thieno[3,2-f][1,2,4]triazolo[4,3-a][1,4]diazepin-6-yl)acetamido)ethyl)carbamoyl)-3,9-dimethyl-6H-thieno[3,2-f][1,2,4]triazolo[4,3-a][1,4]diazepin-6-yl)acetate [MT1]
- cellular activity (in words) ([1]; 11, compared with JQ1): translated well in cellular activities
- PK properties (in words) [3]: improved PK properties
- exposure in vivo (in words) [3]: highly prolonged exposure in vivo
- inhibition of radioligand agonist binding [15]: only partial inhibition of binding
- dimerization by SEC [16]: absence of dimerization
- dimerization by SEC [17]: Complete dimerization
- dimerization by SEC [18]: partial dimerization
- concentrations needed for stabilization, compared with JQ1 [19]: lower concentrations
- thermal stabilization of BET proteins ([19]; 48.5° C. heat shock): stabilized BRD2, 3 and 4 in a concentration dependent manner
- apoptosis by caspase-3 and PARP cleavage [20]: Significant apoptosis
- body weight after drug withdrawal [21]: recovered body weight after drug was withdrawn
- disease monitored by bioluminescence ([21]; compared to JQ1): significantly reduced
- overall survival ([21]; compared to vehicle or JQ1): significantly increased overall survival
- mice sacrificed due to emaciation from drug toxicity ([21]; of 11 mice): two
- off-target effects on receptors and ion channels [22]: limited activity; also recorded: few off-target effects
- leukemic burden by bioluminescence imaging ([23]; half an equivalence (22.1 μmol/kg), 14 days, compared to vehicle or JQ1): significantly reduced leukemic burden
- mCherry+ leukemic burden in bone marrow by FACS ([23]; post-mortem, MT1 at 22.1): significantly decreased
